Results reported in patent publication US20240398828A1, “HETERO-ATOM CONTAINING COMPOUNDS AND USES THEREOF” (Kumquat Biosciences Inc., priority 2021, published 2024).

Columns and labels:
PTPN1 (i.e., PTP1B) = target: T1, PTPN1 (i.e., PTP1B) (Homo sapiens, UniProt P18031); assay: Phosphatase activity assay (DiFMUP substrate), PTP1B; format: biochemical; conditions: compounds binned ≤1 uM or >1 uM
T1 sequence (P18031 1-435): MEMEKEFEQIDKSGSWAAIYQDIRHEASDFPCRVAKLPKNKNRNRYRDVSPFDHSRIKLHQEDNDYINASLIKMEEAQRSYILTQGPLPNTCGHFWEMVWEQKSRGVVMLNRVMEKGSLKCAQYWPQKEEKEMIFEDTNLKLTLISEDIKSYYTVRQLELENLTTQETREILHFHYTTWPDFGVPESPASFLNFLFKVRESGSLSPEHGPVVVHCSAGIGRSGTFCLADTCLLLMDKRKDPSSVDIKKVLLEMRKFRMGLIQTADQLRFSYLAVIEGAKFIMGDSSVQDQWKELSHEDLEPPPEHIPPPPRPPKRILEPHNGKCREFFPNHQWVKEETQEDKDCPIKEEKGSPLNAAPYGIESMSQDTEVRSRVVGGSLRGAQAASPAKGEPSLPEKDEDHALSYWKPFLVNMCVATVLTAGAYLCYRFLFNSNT
Method in brief: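 RT, HEPES pH 7.5 buffer with DTT/Tween-20. 10-point inhibitor series premixed ~2 min with enzyme (PTPN2 0.025 ng/ul). Start with DiFMUP at enzyme Km (~45 μM for PTPN2). Read DiFMU ex360/em450 continuously 15–30 min; initial rate vs concentration, 4-parameter fit → IC50.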

PTPN2 (i.e., TC-PTP) = target: T2, PTPN2 (i.e., TC-PTP) (Homo sapiens, UniProt P17706); assay: Phosphatase activity assay (DiFMUP substrate), PTPN2; format: biochemical; conditions: compounds binned ≤1 uM or >1 uM
T2 sequence (P17706 1-415): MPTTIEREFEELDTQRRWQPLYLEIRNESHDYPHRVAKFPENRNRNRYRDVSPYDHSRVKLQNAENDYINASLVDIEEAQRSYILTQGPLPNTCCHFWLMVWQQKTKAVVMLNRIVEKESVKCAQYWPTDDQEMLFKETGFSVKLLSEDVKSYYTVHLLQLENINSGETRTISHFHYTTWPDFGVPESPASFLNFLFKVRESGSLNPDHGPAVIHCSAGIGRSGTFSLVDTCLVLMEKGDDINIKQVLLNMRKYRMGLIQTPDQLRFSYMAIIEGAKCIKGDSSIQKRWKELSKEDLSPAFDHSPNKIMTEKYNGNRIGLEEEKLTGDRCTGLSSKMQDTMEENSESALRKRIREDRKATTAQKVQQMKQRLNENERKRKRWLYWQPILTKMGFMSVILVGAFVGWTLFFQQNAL
Method in brief: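 First, serially diluted inhibitor is mixed about 2 minutes with enzyme in pH 7.5 HEPES/NaCl/EDTA/DTT/Tween-20 buffer. Next, DiFMUP is added at the enzyme's Km, approximately 45 μM for PTPN2. Finally, DiFMU appearance is read continuously at room temperature and rates are fitted for IC50.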

SMILES	IC50 (PTPN1 (i.e., PTP1B)) [nM]	IC50 (PTPN2 (i.e., TC-PTP)) [nM]
N#Cc1ccccc1-n1cnc(-c2ccc(O)c(N3CC(=O)NS3(=O)=O)c2F)c1 [Compound 298, 2-(4-(3-(1,1-dioxido-4-oxo-1,2,5-thiadiazolidin-2-yl)-2-fluoro-4-hydroxyphenyl)-1H-imidazol-1-yl)benzonitrile]	≤ 1000	≤ 1000
CC1C(=O)NS(=O)(=O)N1c1c(O)ccc(-c2cnn(Cc3cccc(F)c3)c2)c1F (stereo not shown) [Compound 155, 5-(2-fluoro-3-(1-(3-fluorobenzyl)-1H-pyrazol-4-yl)-6-hydroxyphenyl)-4-methyl-1,2,5-thiadiazolidin-3-one 1,1-dioxide]	≤ 1000	≤ 1000
O=C1CN(c2c(O)ccc(-c3cnc(C4CC4)o3)c2F)S(=O)(=O)N1 [Compound 249, 5-(3-(2-cyclopropyloxazol-5-yl)-2-fluoro-6-hydroxyphenyl)-1,2,5-thiadiazolidin-3-one 1,1-dioxide]	≤ 1000	≤ 1000
O=C1CN(c2c(O)ccc(-c3ccc(NS(=O)(=O)C4CCC4)cc3)c2F)S(=O)(=O)N1 [Compound 335, N-(3′-(1,1-dioxido-4-oxo-1,2,5-thiadiazolidin-2-yl)-2′-fluoro-4′-hydroxy-[1,1′-biphenyl]-4-yl)cyclobutanesulfonamide]	≤ 1000	≤ 1000
O=C1CN(c2c(O)ccc(-c3cnn(C(F)F)c3)c2F)S(=O)(=O)N1 [Compound 273, 5-(3-(1-(difluoromethyl)-1H-pyrazol-4-yl)-2-fluoro-6-hydroxyphenyl)-1,2,5-thiadiazolidin-3-one 1,1-dioxide]	≤ 1000	≤ 1000
O=C1CN(c2c(O)ccc(-c3ccc(NS(=O)(=O)C4CC4)nc3)c2F)S(=O)(=O)N1 [Compound 320, N-(5-(3-(1,1-dioxido-4-oxo-1,2,5-thiadiazolidin-2-yl)-2-fluoro-4-hydroxyphenyl)pyridin-2-yl)cyclopropanesulfonamide]	≤ 1000	≤ 1000
Cn1nc(C2CC2)cc1-c1ccc(O)c(N2CC(=O)NS2(=O)=O)c1F [Compound 278, 5-(3-(3-cyclopropyl-1-methyl-1H-pyrazol-5-yl)-2-fluoro-6-hydroxyphenyl)-1,2,5-thiadiazolidin-3-one 1,1-dioxide]	≤ 1000	≤ 1000
O=C1CN(c2c(O)ccc(-c3cn(-c4cccc(F)c4)cn3)c2F)S(=O)(=O)N1 [Compound 181, 5-(2-fluoro-3-(1-(3-fluorophenyl)-1H-imidazol-4-yl)-6-hydroxyphenyl)-1,2,5-thiadiazolidin-3-one 1,1-dioxide]	≤ 1000	≤ 1000
O=C1CN(c2c(O)ccc(-c3cn(-c4cc(F)ccc4F)cn3)c2F)S(=O)(=O)N1 [Compound 303, 5-(3-(1-(2,5-difluorophenyl)-1H-imidazol-4-yl)-2-fluoro-6-hydroxyphenyl)-1,2,5-thiadiazolidin-3-one 1,1-dioxide]	≤ 1000	≤ 1000
CN1CCc2cc(-c3ccc(O)c(N4CC(=O)NS4(=O)=O)c3F)ccc2C1 [Compound 109, 5-(2-fluoro-6-hydroxy-3-(2-methyl-1,2,3,4-tetrahydroisoquinolin-6-yl)phenyl)-1,2,5-thiadiazolidin-3-one 1,1-dioxide]	≤ 1000	≤ 1000
O=C1CN(c2c(O)ccc(-c3cnn(CC(F)(F)F)c3)c2F)S(=O)(=O)N1 [Compound 366, 5-(2-fluoro-6-hydroxy-3-(1-(2,2,2-trifluoroethyl)-1H-pyrazol-4-yl)phenyl)-1,2,5-thiadiazolidin-3-one 1,1-dioxide]	≤ 1000	≤ 1000
CC(C)CNc1cccc(-c2ccc(O)c(N3CC(=O)NS3(=O)=O)c2F)c1 [Compound 137, 5-(2-fluoro-4-hydroxy-3′-(isobutylamino)-[1,1′-biphenyl]-3-yl)-1,2,5-thiadiazolidin-3-one 1,1-dioxide]	≤ 1000	≤ 1000
O=C1CN(c2c(O)ccc(-c3cnn(Cc4cncnc4)c3)c2F)S(=O)(=O)N1 [Compound 197, 5-(2-fluoro-6-hydroxy-3-(1-(pyrimidin-5-ylmethyl)-1H-pyrazol-4-yl)phenyl)-1,2,5-thiadiazolidin-3-one 1,1-dioxide]	≤ 1000	≤ 1000
O=C1CN(c2c(O)ccc(-c3cnn(CC4CCCCC4)c3)c2F)S(=O)(=O)N1 [Compound 179, 5-(3-(1-(cyclohexylmethyl)-1H-pyrazol-4-yl)-2-fluoro-6-hydroxyphenyl)-1,2,5-thiadiazolidin-3-one 1,1-dioxide]	≤ 1000	≤ 1000
Cc1cc(-c2ccc(O)c(N3CC(=O)NS3(=O)=O)c2F)nn1C1CC1 [Compound 340, 5-(3-(1-cyclopropyl-5-methyl-1H-pyrazol-3-yl)-2-fluoro-6-hydroxyphenyl)-1,2,5-thiadiazolidin-3-one 1,1-dioxide]	≤ 1000	≤ 1000

The remaining lines, values ahead:

IC50 (PTPN1 (i.e., PTP1B)) [nM]	IC50 (PTPN2 (i.e., TC-PTP)) [nM]	SMILES
≤ 1000	≤ 1000	NC(=O)C1CC1c1cc(-c2ccc(O)c(N3CC(=O)NS3(=O)=O)c2F)[nH]n1 (stereo not shown) [Compound 533, 2-(5-(3-(1,1-dioxido-4-oxo-1,2,5-thiadiazolidin-2-yl)-2-fluoro-4-hydroxyphenyl)-1H-pyrazol-3-yl)cyclopropane-1-carboxamide]
≤ 1000	≤ 1000	O=C1C=C(c2c(O)ccc(-c3cc(C4CC4)n[nH]3)c2F)S(=O)(=O)N1 [Compound 400, 5-(3-(3-cyclopropyl-1H-pyrazol-5-yl)-2-fluoro-6-hydroxyphenyl)isothiazol-3(2H)-one 1,1-dioxide]
≤ 1000	≤ 1000	O=C1CN(c2c(O)ccc(-c3cnn(CC4CC5CCC(C4)O5)c3)c2F)S(=O)(=O)N1 (stereo not shown) [Compound 422, 5-(3-(1-((8-oxabicyclo[3.2.1]octan-3-yl)methyl)-1H-pyrazol-4-yl)-2-fluoro-6-hydroxyphenyl)-1,2,5-thiadiazolidin-3-one 1,1-dioxide]
≤ 1000	≤ 1000	O=C1CN(c2c(O)ccc(-c3cc(C4CC4)n(CC4CCCN4)n3)c2F)S(=O)(=O)N1 (stereo not shown) [Compound 382, 5-(3-(5-cyclopropyl-1-(pyrrolidin-2-ylmethyl)-1H-pyrazol-3-yl)-2-fluoro-6-hydroxyphenyl)-1,2,5-thiadiazolidin-3-one 1,1-dioxide]
≤ 1000	≤ 1000	O=C1CN(c2c(O)ccc(C3=CCN(CC4CC4)C3)c2F)S(=O)(=O)N1 [Compound 496, 5-(3-(1-(cyclopropylmethyl)-2,5-dihydro-1H-pyrrol-3-yl)-2-fluoro-6-hydroxyphenyl)-1,2,5-thiadiazolidin-3-one 1,1-dioxide]
≤ 1000	≤ 1000	O=C1CN(c2c(O)ccc(-c3cc(N4CCC5(COC5)C4)n[nH]3)c2F)S(=O)(=O)N1 [Compound 431, 5-(3-(3-(2-oxa-6-azaspiro[3.4]octan-6-yl)-1H-pyrazol-5-yl)-2-fluoro-6-hydroxyphenyl)-1,2,5-thiadiazolidin-3-one 1,1-dioxide]
≤ 1000	≤ 1000	O=C1CN(c2c(O)ccc(-c3cc(C4CC4)n(CC4CC4)n3)c2F)S(=O)(=O)N1 [Compound 409, 5-(3-(5-cyclopropyl-1-(cyclopropylmethyl)-1H-pyrazol-3-yl)-2-fluoro-6-hydroxyphenyl)-1,2,5-thiadiazolidin-3-one 1,1-dioxide]
≤ 1000	≤ 1000	O=C1CN(c2c(O)ccc(C3=CC(CCc4ccccc4)NC3)c2F)S(=O)(=O)N1 (stereo not shown) [Compound 473, 5-(2-fluoro-6-hydroxy-3-(5-phenethyl-2,5-dihydro-1H-pyrrol-3-yl)phenyl)-1,2,5-thiadiazolidin-3-one 1,1-dioxide]
≤ 1000	≤ 1000	Cn1cc(-c2ccc(O)c(N3CC(=O)NS3(=O)=O)c2F)cc1CCC1CC1 [Compound 392, 5-(3-(5-(2-cyclopropylethyl)-1-methyl-1H-pyrrol-3-yl)-2-fluoro-6-hydroxyphenyl)-1,2,5-thiadiazolidin-3-one 1,1-dioxide]
≤ 1000	≤ 1000	Cc1ccccc1-n1cnc(-c2ccc(O)c(N3CC(=O)NS3(=O)=O)c2F)c1 [Compound 418, 5-(2-fluoro-6-hydroxy-3-(1-(o-tolyl)-1H-imidazol-4-yl)phenyl)-1,2,5-thiadiazolidin-3-one 1,1-dioxide]
≤ 1000	≤ 1000	O=C1CN(c2c(O)ccc(-c3cn(C4CCCCC4)cn3)c2F)S(=O)(=O)N1 [Compound 459, 5-(3-(1-cyclohexyl-1H-imidazol-4-yl)-2-fluoro-6-hydroxyphenyl)-1,2,5-thiadiazolidin-3-one 1,1-dioxide]
